pIC50: −log10 of the molar value.
Columns and labels:
A549 = experiment: Cytotoxicity against human A549 cells assessed as reduction in cell viability after 48 hrs by MTT assay; format: functional, cell-based; conditions: A549, 48 h
[1] = Cytotoxicity against human […] cells assessed as reduction in cell viability after 48 hrs by MTT assay; format: functional, cell-based
MDA-MB-231 = experiment: Cytotoxicity against human MDA-MB-231 cells assessed as reduction in cell viability after 48 hrs by MTT assay; format: functional, cell-based; conditions: MDA-MB-231, 48 h
HeLa = experiment: Cytotoxicity against human HeLa cells assessed as reduction in cell viability after 48 hrs by MTT assay; format: functional, cell-based
HepG2 = experiment: Cytotoxicity against human HepG2 cells assessed as reduction in cell viability after 48 hrs by MTT assay; format: functional, cell-based; conditions: HepG2, 48 h
HaCaT = experiment: Cytotoxicity against human HaCaT cells assessed as reduction in cell viability after 48 hrs by MTT assay; format: cell-based

Row | SMILES | pIC50 (A549) | pIC50 [1] | pIC50 (MDA-MB-231) | pIC50 (HeLa) | pIC50 (HepG2) | pIC50 (HaCaT)
1 | O=Cc1c(O)ccc2oc(-c3ccccc3Cl)nc12 | 5.11 | 4.85 | 5.25 | 4.85 | 4.98 | 4.92
2 | O=Cc1c(O)ccc2oc(-c3ccco3)nc12 | < 4.52 | < 4.52 | < 4.52 | < 4.52 | < 4.52 | < 4.52
3 | COc1cc(OC)cc(-c2nc3c(C=O)c(O)ccc3o2)c1 | 4.52 | 4.52 | 4.47 | 4.60 | 4.67 | 4.75
4 | CC(=O)c1c(O)ccc2oc(-c3ccccc3C)nc12 | 4.70 | 4.76 | 4.52 | 4.72 | 4.93 | 5.05
5 | CC(=O)c1c(O)ccc2oc(-c3ccccc3)nc12 | < 4.52 | < 4.52 | < 4.52 | < 4.52 | < 4.52 | < 4.52
6 | Cc1ccccc1-c1nc2c(C=O)c(O)ccc2o1 | 5.66 | 5.01 | 5.27 | 4.81 | 5.32 | 4.91

Source: ChEMBL document CHEMBL4325881, “Facile synthesis of 2-aryl 5-hydroxy benzo[d]oxazoles and their in vitro anti-proliferative effects on various cancer cell lines” (Bioorg Med Chem Lett, 2018)
